Test results as given in the supplement of paper PMC10307832.

How the values were obtained:
Assay in all cases: relative viability (nuclei count vs DMSO), 5 days (fraction); higher = more cells survive
Carfilzomib + Vorinostat = compound: CC(C)C[C@H](NC(=O)[C@H](CCc1ccccc1)NC(=O)CN1CCOCC1)C(=O)N[C@@H](Cc1ccccc1)C(=O)N[C@@H](CC(C)C)C(=O)[C@@]1(C)CO1 [Carfilzomib] + O=C(CCCCCCC(=O)Nc1ccccc1)NO [Vorinostat] (partner 1 µM)
Method in brief: (§1)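 Cells from lung cancer lines were seeded into 1536-well plates and, one day later, dosed by pin tool. Treatments were either a single drug or a fixed dose of an anchor drug with five library-drug doses (not always all listed) in √10 steps. After 5 days, nuclei were stained in a one-step fixation (final 0.05% Triton X-100, 1% formaldehyde, 1 ug/ml Hoechst) and counted on 4× images, and relative viability is the treated-to-vehicle nuclei ratio, as the median of duplicate plates.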

Olaparib + Trametinib = compound: O=C(c1cc(Cc2n[nH]c(=O)c3ccccc23)ccc1F)N1CCN(C(=O)C2CC2)CC1 [Olaparib] + CC(=O)Nc1cccc(-n2c(=O)n(C3CC3)c(=O)c3c(Nc4ccc(I)cc4F)n(C)c(=O)c(C)c32)c1 [Trametinib] (partner 0.02 µM)
Method in brief: as §1

Carfilzomib + Bortezomib = compound: CC(C)C[C@H](NC(=O)[C@H](CCc1ccccc1)NC(=O)CN1CCOCC1)C(=O)N[C@@H](Cc1ccccc1)C(=O)N[C@@H](CC(C)C)C(=O)[C@@]1(C)CO1 [Carfilzomib] + CC(C)C[C@H](NC(=O)[C@H](Cc1ccccc1)NC(=O)c1cnccn1)B(O)O [Bortezomib] (partner 0.002 µM)
Method in brief: as §1

Olaparib + Tozasertib = compound: O=C(c1cc(Cc2n[nH]c(=O)c3ccccc23)ccc1F)N1CCN(C(=O)C2CC2)CC1 [Olaparib] + Cc1cc(Nc2cc(N3CCN(C)CC3)nc(Sc3ccc(NC(=O)C4CC4)cc3)n2)n[nH]1 [Tozasertib] (partner 0.1 µM)
Method in brief: as §1

Cell Line | relative viability (Carfilzomib + Vorinostat; first compound 0.001 µM) | relative viability (Carfilzomib + Vorinostat; first compound 0.003162 µM) | relative viability (Carfilzomib + Vorinostat; first compound 0.01 µM) | relative viability (Carfilzomib + Vorinostat; first compound 0.03162 µM) | relative viability (Carfilzomib + Vorinostat; first compound 0.1 µM) | relative viability (Olaparib + Trametinib; first compound 0.08 µM) | relative viability (Olaparib + Trametinib; first compound 0.253 µM) | relative viability (Olaparib + Trametinib; first compound 2.53 µM) | relative viability (Olaparib + Trametinib; first compound 8 µM) | relative viability (Carfilzomib + Bortezomib; first compound 0.001 µM) | relative viability (Carfilzomib + Bortezomib; first compound 0.003162 µM) | relative viability (Carfilzomib + Bortezomib; first compound 0.01 µM) | relative viability (Carfilzomib + Bortezomib; first compound 0.03162 µM) | relative viability (Carfilzomib + Bortezomib; first compound 0.1 µM) | relative viability (Olaparib + Tozasertib; first compound 0.08 µM) | relative viability (Olaparib + Tozasertib; first compound 0.253 µM) | relative viability (Olaparib + Tozasertib; first compound 2.53 µM) | relative viability (Olaparib + Tozasertib; first compound 8 µM)
LOU-NH91 | 1.03 | 1.03 | 0.443 | 0.302 | 0.328 | 0.862 | 0.782 | 0.793 | 0.825 | 0.438 | 0.49 | 0.362 | 0.26 | 0.263 | 0.729 | 0.674 | 0.637 | 0.628
LU99A | 0.467 | 0.649 | 0.404 | 0.225 | 0.167 | 0.525 | 0.535 | 0.473 | 0.466 | 1.09 | 1.31 | 1.05 | 0.459 | 0.216 | 0.299 | 0.292 | 0.261 | 0.22
LXF-289 | 0.747 | 0.795 | 0.738 | 0.0661 | 0.101 | 0.737 | 0.674 | 0.771 | 0.847 | 1.03 | 0.957 | 0.653 | 0.0711 | 0.0774 | 0.232 | 0.146 | 0.159 | 0.156
NCI-H23 | 0.506 | 0.656 | 0.195 | 0.118 | 0.0962 | 0.402 | 0.439 | 0.385 | 0.368 | 1.01 | 0.92 | 0.445 | 0.165 | 0.125 | 0.391 | 0.335 | 0.397 | 0.232
NCI-H322M | 0.796 | 0.898 | 0.952 | 0.788 | 0.38 | 0.496 | 0.57 | 0.577 | 0.523 | 1.27 | 1.31 | 1.35 | 1.21 | 0.66 | 0.484 | 0.471 | 0.473 | 0.434
NCI-H441 | 0.777 | 0.683 | 0.546 | 0.129 | 0.141 | 0.548 | 0.442 | 0.382 | 0.447 | 0.25 | 0.383 | 0.14 | 0.153 | 0.111 | 0.602 | 0.561 | 0.639 | 0.541
NCI-H460 | 0.743 | 0.661 | 0.68 | 0.093 | 0.0182 | 0.115 | 0.0823 | 0.121 | 0.0533 | 1.06 | 1.12 | 1 | 0.0827 | 0.0107 | 0.485 | 0.415 | 0.356 | 0.184
NCI-H520 | 0.684 | 0.605 | 0.192 | 0.156 | 0.148 | 0.794 | 0.527 | 0.506 | 0.311 | 0.45 | 0.179 | 0.142 | 0.129 | 0.132 | 0.39 | 0.389 | 0.467 | 0.411
